Test results as given in patent US20260232712A1, “Food for Improving Intestinal Environment” (AJINOMOTO CO., INC., priority 2023, published 2026).

What was measured:
C. sporogenes [1] = assay: Pure culture growth test of C. sporogenes with added amino acid (OD600); format: cell-based, Clostridium sporogenes; conditions: amino acid added at final concentration 4 mM; 1/5 diluted medium; vs control; FIG. 1-2
Procedure: Amino acids that promote the growth of an IPA-producing bacterium C. sporogenes were narrowed down using a genome-scale metabolic model (GEM) simulation, and then evaluated in a pure culture system. The GEM simulation was performed using COBRA toolbox of MATLAB (registered trademark), and amino acids that affected the growth of C. sporogenes when 20 types of amino acids were removed one by one were selected. Then, the influence of amino acids selected by GEM analysis on the growth of C. sporogenes was investigated in a pure culture system. As C. sporogenes, an in-house strain from Ajinomoto Co., Inc. was used, and as the culture medium, ⅕ diluted enhanced Clostridium medium (Difico, #62620609) was used. Each amino acid was added to the medium to a final concentration of 4 mM, and the growth of C. sporogenes was evaluated using OD600 as an indicator. The control contained no addition of amino acid (culture medium only).

C. sporogenes [2] = assay: IPA production by concentrated C. sporogenes bacterial solution with Trp and/or Phe; format: cell-based, Clostridium sporogenes; conditions: 37° C., anaerobic, 24 hr; Trp 0.3 mM fixed, Phe 0.3-1.2 mM; FIG. 1-3
Procedure: To evaluate the influence of Trp and a combination of Trp and Phe on IPA production, pure culture experiments using C. sporogenes were performed. As C. sporogenes, in-house strain of Ajinomoto Co., Inc. was used. First, 800 μL of C. sporogenes glycerol stock was added to 40 mL of reinforced Clostridium medium and cultured under anaerobic conditions at 37° C. for 18 hr. After culturing, centrifugation was performed at 9,100×g for 5 min at 4° C., and the precipitate was collected under anaerobic conditions, washed twice with PBS, and finally suspended in 5 mL of PBS after anaerobic treatment to obtain a concentrated bacterial solution. The influence of the concentrated bacterial solution on IPA production was investigated. […] Furthermore, similar to Experimental Example 1, the influence of Phe/Trp molar ratios between 1 and 10 on IPA production in C. sporogenes was evaluated using GEM analysis.
The IPA concentration in the culture supernatant was analyzed using an LC-MS/MS mass spectrometry system (mass spectrometer: SCIEX API3200, pump: Shimadzu Corporation LC-20AD, autosampler: Shimadzu Corporation SIL-20AC, column oven: Shimadzu Corporation CTO-20AC, system controller: Shimadzu Corporation CBM-20A, degasser: Shimadzu Corporation DGU-20A, nitrogen generator: Airtech AT5NP-25CSL). […]

N[C@@H](Cc1ccccc1)C(=O)O [Phe, L-phenylalanine]
growth of C. sporogenes (OD600) (C. sporogenes [1]): promoted the growth of C. sporogenes
IPA in the culture supernatant (C. sporogenes [2]): no effect
